Experiments:
[1] = system: IL-1 beta-induced coronary stenosis; conditions: porcine, long term treatment; cited from earlier work
ROCK1 = ROCK1 (Homo sapiens, UniProt Q13464); assay: ROCK assay (Caliper LabChip peptide phosphorylation), ROCK1; format: biochemical; conditions: 5 μM ATP, 1.5 μM peptide substrate
Protocol: The effectiveness of compounds of the present invention as ROCK inhibitors can be determined in a 30 μL assay containing 20 mM HEPES, pH 7.5, 20 mM MgCl2, 0.015% Brij-35, 4 mM DTT, 5 μM ATP and 1.5 μM peptide substrate (FITC-AHA-[…]-OH). Compounds were dissolved in DMSO so that the final concentration of DMSO was <2%, and the reaction was initiated with Rho kinase variants. After incubation, the reaction was terminated by the addition of EDTA and the phosphorylated and non-phosphorylated peptides separated using a LabChip 3000 Reader (Caliper Life Sciences). […] Compounds were tested in dose-response format, and the inhibition of kinase activity was calculated at each concentration of compound. The inhibition data were fit using a curve-fitting program to determine the IC50; i.e., the concentration of compound required to inhibit 50% of kinase activity.”
Representative Examples were tested in the ROCK assay described above and found having ROCK inhibitory activity. A range of ROCK inhibitory activity (IC50 values) of ≦50 μM (50000 nM) was observed. Table A below lists the ROCK IC50 values measured for the following examples.

[2] = system: neointimal formation in rats; conditions: model similar to balloon injury; cited from earlier work

Sequence of ROCK1 (Q13464 whole entry, species assumed): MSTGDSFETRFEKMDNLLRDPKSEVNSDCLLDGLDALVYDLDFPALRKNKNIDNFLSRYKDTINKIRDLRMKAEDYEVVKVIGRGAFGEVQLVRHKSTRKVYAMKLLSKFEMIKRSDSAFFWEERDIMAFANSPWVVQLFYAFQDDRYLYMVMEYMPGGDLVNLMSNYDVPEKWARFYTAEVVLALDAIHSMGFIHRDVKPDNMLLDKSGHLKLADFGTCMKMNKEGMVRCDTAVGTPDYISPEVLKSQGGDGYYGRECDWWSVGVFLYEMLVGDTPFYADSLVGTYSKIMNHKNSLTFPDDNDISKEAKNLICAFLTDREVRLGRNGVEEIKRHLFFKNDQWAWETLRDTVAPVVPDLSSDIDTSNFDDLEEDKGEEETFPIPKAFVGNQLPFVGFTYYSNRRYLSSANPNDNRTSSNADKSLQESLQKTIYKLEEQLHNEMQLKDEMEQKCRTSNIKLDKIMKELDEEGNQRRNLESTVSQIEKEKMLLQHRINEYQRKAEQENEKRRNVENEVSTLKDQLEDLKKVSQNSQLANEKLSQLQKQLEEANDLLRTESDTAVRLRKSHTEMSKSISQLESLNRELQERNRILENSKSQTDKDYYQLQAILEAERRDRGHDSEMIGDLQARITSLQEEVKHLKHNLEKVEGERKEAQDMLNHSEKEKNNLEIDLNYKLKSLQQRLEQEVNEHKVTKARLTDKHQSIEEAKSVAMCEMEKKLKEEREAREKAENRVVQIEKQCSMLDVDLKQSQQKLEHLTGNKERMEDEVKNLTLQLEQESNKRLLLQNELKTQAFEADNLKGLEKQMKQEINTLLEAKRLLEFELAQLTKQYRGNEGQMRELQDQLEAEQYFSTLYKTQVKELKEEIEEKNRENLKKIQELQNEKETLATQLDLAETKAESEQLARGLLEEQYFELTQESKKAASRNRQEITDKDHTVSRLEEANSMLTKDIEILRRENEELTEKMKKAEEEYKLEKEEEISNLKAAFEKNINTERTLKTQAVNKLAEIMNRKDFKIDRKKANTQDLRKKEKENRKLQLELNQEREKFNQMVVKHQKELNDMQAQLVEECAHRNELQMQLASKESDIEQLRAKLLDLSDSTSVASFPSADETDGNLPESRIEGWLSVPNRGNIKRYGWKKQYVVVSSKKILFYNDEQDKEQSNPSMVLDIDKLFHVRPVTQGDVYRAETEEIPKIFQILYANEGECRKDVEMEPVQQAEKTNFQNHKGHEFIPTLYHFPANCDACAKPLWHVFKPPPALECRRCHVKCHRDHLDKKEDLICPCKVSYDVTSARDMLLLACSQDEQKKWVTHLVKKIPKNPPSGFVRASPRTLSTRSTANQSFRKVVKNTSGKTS

**Q.** With O=S(=O)(c1cccc2cnccc12)N1CCCNCC1 [fasudil] as the compound, how does the coronary constrictive remodeling [1] read?
**A.** promote a regression of coronary constrictive remodeling

**Q.** What about the coronary stenosis [1] of the same compound?
**A.** progressively reduce coronary stenosis

**Q.** For O=C(Oc1ccc(-c2n[nH]c(=O)c3ccccc23)cc1)N1CCC(c2ccccc2)C1 (stereo not shown) [Example 69, 4-(4-oxo-3,4-dihydrophthalazin-1-yl)phenyl 3-phenylpyrrolidine-1-carboxylate], which IC50 (ROCK1) is on record?
**A.** ≥ 50 µM

**Q.** Which neointimal formation [2] does the source give for C[C@@H](N)[C@H]1CC[C@H](C(=O)Nc2ccncc2)CC1 [Example Y-27632, Y-27632] here?
**A.** inhibited neointimal formation
